Experimental findings from ChEMBL document CHEMBL1201862, “PubChem BioAssay data set” (2004) are described below.

SMILES strings stand for the structures.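 Test compounds were applied to cells in 96-well plates for 48 hours at 5 doses. Abbreviation: GI50, concentration required for 50% inhibition of growth.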 Calls of active or inactive are those of the source. No stated cut-off is given here; in the data, active = GI50 up to about 1.1 µM and inactive = higher. Bounds are passed on as bounds.

Some test systems named below: OVCAR-5; CAKI-1; UACC-257; PC-3; HCT-116; OVCAR-8; HT-29; MDA-MB-231; TK-10; RPMI-8226; NCI-H460; SN12C; MDA-MB-435; T47D; 786-0; RXF 393; Hs-578T; HL-60; A549; NCI/ADR-RES.
Assay in all cases: growth of human tumour cells (NCI), 48 h

As for `CCOC(=O)C(NS(=O)(=O)c1ccccc1)(C(F)(F)F)P(=O)(OCC(C)C)OCC(C)C` (stereo not given), the GI50 in the test on OVCAR-5, in the test with CAKI-1, with UACC-257, in the test on PC-3, in the test with HCT-116 and in the test on OVCAR-8 was > 100 µM (inactive) each time. In addition, the GI50 in the test with HT-29, with MDA-MB-231, in the test on TK-10, in the test with RPMI-8226, with NCI-H460 and with SN12C was > 100 µM (inactive) each time. Moreover, the GI50 in the test on MDA-MB-435, with T47D, in the test with 786-0, in the test with RXF 393, in the test with Hs-578T and in the test with HL-60 was > 100 µM (inactive) throughout. The GI50 in the test on A549 and in the test on NCI/ADR-RES was > 100 µM (inactive) in each case.
`O=C(/C=C/c1ccccc1)CCN1CCOCC1`: the GI50 in the test with OVCAR-5 was 15.7 µM (inactive); with CAKI-1, 8.39 µM (inactive); in the test on UACC-257, 12.2 µM (inactive); in the test with PC-3, 17.4 µM (inactive); in the test on HCT-116, 12.1 µM (inactive); in the test with OVCAR-8, 15.1 µM (inactive). For the same molecule, the GI50 was 13.6 µM (inactive) in the test with HT-29; 16.6 µM (inactive) in the test with MDA-MB-231; 13.7 µM (inactive) in the test with TK-10; 1.56 µM (inactive) in the test on RPMI-8226; 17.8 µM (inactive) in the test on NCI-H460; 14.8 µM (inactive) with SN12C. Also, the GI50 is 15 µM (inactive) with MDA-MB-435; 17.7 µM (inactive) with T47D; 6.85 µM (inactive) in the test with 786-0; 12.7 µM (inactive) in the test with RXF 393; 27.1 µM (inactive) in the test on Hs-578T; 2.12 µM (inactive) in the test with HL-60. Moreover, the GI50 in the test with A549 is 24.2 µM (inactive); with NCI/ADR-RES, 21.6 µM (inactive).
Take `COC(=O)[C@H]1[C@H](OC(=O)[C@@H](OC)c2ccccc2)ON2CC[C@@H](OC(=O)c3ccccc3)[C@H]12`: the GI50 is > 100 µM (inactive) in the test with OVCAR-5; 45.2 µM (inactive) in the test with CAKI-1; > 100 µM (inactive) with UACC-257; > 100 µM (inactive) in the test on PC-3; > 100 µM (inactive) with HCT-116; 61.4 µM (inactive) with OVCAR-8. Moreover, the GI50 with HT-29 is 51.3 µM (inactive); in the test on MDA-MB-231, 74.3 µM (inactive); in the test with TK-10 it was > 100 µM (inactive); in the test with RPMI-8226, > 100 µM (inactive); with NCI-H460, > 100 µM (inactive); in the test on SN12C, 78 µM (inactive). The GI50 is > 100 µM (inactive) in the test with MDA-MB-435; 91.2 µM (inactive) with T47D; 43 µM (inactive) with 786-0; 64.4 µM (inactive) with RXF 393; 57.9 µM (inactive) in the test with Hs-578T; > 100 µM (inactive) with HL-60. Besides, the GI50 in the test with A549 and with NCI/ADR-RES was > 100 µM (inactive) in each case.
`CCCCCCCCCCCCCCCCNc1nc(=O)n(C2CC(O)C(CO)O2)cc1F` (stereo not given): the GI50 is 18.2 µM (inactive) in the test on OVCAR-5; 2.1 µM (inactive) in the test on CAKI-1; 16.7 µM (inactive) in the test with UACC-257; 3.93 µM (inactive) in the test with PC-3; 8.26 µM (inactive) with HCT-116; 1.82 µM (inactive) with OVCAR-8. In addition, the GI50 with HT-29 is 9.84 µM (inactive); in the test on MDA-MB-231, 21.7 µM (inactive); with TK-10, 11.9 µM (inactive); in the test with RPMI-8226 it was 15.8 µM (inactive); in the test with NCI-H460, 10.7 µM (inactive); with SN12C, 12.5 µM (inactive). The GI50 in the test with MDA-MB-435 is 12.2 µM (inactive); with T47D, 11.7 µM (inactive); in the test on 786-0 it was 2.88 µM (inactive); in the test with RXF 393 it was 13.5 µM (inactive); in the test on Hs-578T, 17.4 µM (inactive); with HL-60, 5.47 µM (inactive). Also, the GI50 with A549 is 0.94 µM (active); in the test on NCI/ADR-RES, 2.86 µM (inactive).
In the case of `O=C1Cc2c(-c3ccccc3)cc(-c3ccc(Cl)cc3)nc2-c2ccccc2N1`, the GI50 in the test on OVCAR-5 is 11 µM (inactive); with CAKI-1, 3.91 µM (inactive); in the test with UACC-257 it was 14.2 µM (inactive); in the test on PC-3 it was 10.1 µM (inactive); in the test on HCT-116, 1.98 µM (inactive); in the test with OVCAR-8, 2.37 µM (inactive). The GI50 was 3.66 µM (inactive) in the test with HT-29; 4.13 µM (inactive) with MDA-MB-231; 3.41 µM (inactive) with TK-10; 8.47 µM (inactive) in the test with RPMI-8226; 3.21 µM (inactive) with NCI-H460; 3.33 µM (inactive) in the test on SN12C. For the same molecule, the GI50 in the test on MDA-MB-435 was 8.99 µM (inactive); with T47D, 3.23 µM (inactive); in the test with 786-0, 1.73 µM (inactive); with RXF 393 it was 3.77 µM (inactive); in the test on Hs-578T, 2.88 µM (inactive); in the test on HL-60, 14.5 µM (inactive). For the same molecule, the GI50 in the test with A549 was 9.35 µM (inactive); in the test with NCI/ADR-RES, 3.14 µM (inactive).
As to `C#C[C@]1(O)[C@@H](CO)O[C@@H](n2ccc(N)nc2=O)[C@@H]1O`, the GI50 was 0.209 µM (active) with OVCAR-5; < 0.01 µM (active) in the test with CAKI-1; 0.111 µM (active) in the test on UACC-257; 0.0352 µM (active) with PC-3; < 0.0435 µM (active) in the test on HCT-116; < 0.0121 µM (active) in the test with OVCAR-8. The GI50 is < 0.0149 µM (active) in the test with HT-29; 0.0908 µM (active) in the test on MDA-MB-231; 0.0224 µM (active) in the test on TK-10; < 0.01 µM (active) with RPMI-8226; < 0.01 µM (active) in the test with NCI-H460; < 0.01 µM (active) in the test with SN12C. Moreover, the GI50 is < 0.01 µM (active) with MDA-MB-435; < 0.015 µM (active) with T47D; < 0.0325 µM (active) in the test on 786-0; 0.0581 µM (active) in the test with RXF 393; 0.108 µM (active) in the test on Hs-578T; < 0.0147 µM (active) in the test on HL-60. Also, the GI50 in the test with A549 was < 0.01 µM (active); with NCI/ADR-RES, < 0.0317 µM (active).
For the molecule `Cc1cc(C)nc(NS(=O)(=O)c2ccc(NNc3c4ccccc4nc4c(C(=O)Nc5ccc(S(N)(=O)=O)cc5)cccc34)cc2)n1`, the GI50 was 31.1 µM (inactive) in the test with OVCAR-5; 50.1 µM (inactive) in the test on CAKI-1; > 100 µM (inactive) in the test on UACC-257; 18.6 µM (inactive) with PC-3; 28.2 µM (inactive) with HCT-116; 34.4 µM (inactive) in the test with OVCAR-8. Also, the GI50 is 39.7 µM (inactive) in the test on HT-29; 13.3 µM (inactive) in the test with MDA-MB-231; 69.2 µM (inactive) in the test on TK-10; 23.3 µM (inactive) in the test with RPMI-8226; 37.6 µM (inactive) in the test on NCI-H460; 29.9 µM (inactive) with SN12C. Also, the GI50 was 47.2 µM (inactive) in the test with MDA-MB-435; 4.23 µM (inactive) with T47D; 66.5 µM (inactive) with 786-0; 40.1 µM (inactive) with RXF 393; 64.1 µM (inactive) in the test with Hs-578T; 34.9 µM (inactive) in the test with HL-60. Moreover, the GI50 in the test on A549 and in the test on NCI/ADR-RES was > 100 µM (inactive) each time.
In the case of `CCCC(=O)NC(Nc1ccc(F)cc1)(C(F)(F)F)C(F)(F)F`, the GI50 is > 100 µM (inactive) with OVCAR-5; > 100 µM (inactive) with CAKI-1; 8.2 µM (inactive) with UACC-257; 19.1 µM (inactive) with PC-3; 19.8 µM (inactive) with HCT-116; 24.1 µM (inactive) with OVCAR-8. Also, the GI50 with HT-29 is 64.3 µM (inactive); with MDA-MB-231 it was > 100 µM (inactive); in the test with TK-10, > 43.7 µM (inactive); in the test on RPMI-8226, 32.2 µM (inactive); in the test with NCI-H460, 56.5 µM (inactive); with SN12C, > 100 µM (inactive). Moreover, the GI50 with MDA-MB-435 is 1.25 µM (inactive); in the test on T47D it was 7.14 µM (inactive); in the test on 786-0 it was > 100 µM (inactive); with RXF 393, > 100 µM (inactive); with Hs-578T, > 55 µM (inactive); in the test on HL-60, 1.75 µM (inactive). Also, the GI50 in the test with A549 is 16.9 µM (inactive); in the test with NCI/ADR-RES it was 9.31 µM (inactive).
As for `C=C(C)C(=O)OC1C[C@H](COC(C)=O)C2CC=C(C)C2C2OC(=O)C(=C)[C@H]12` (stereo not given in full), the GI50 in the test with OVCAR-5 was 9.77 µM (inactive); with CAKI-1 it was 2.81 µM (inactive); in the test with UACC-257, 4.09 µM (inactive); in the test on PC-3 it was 7.24 µM (inactive); with HCT-116, 1.67 µM (inactive); with OVCAR-8 it was 5.31 µM (inactive). The GI50 in the test with HT-29 was 4.25 µM (inactive); in the test with MDA-MB-231, 4.3 µM (inactive); in the test on TK-10, 6.76 µM (inactive); in the test with RPMI-8226 it was 0.525 µM (active); in the test with NCI-H460, 15 µM (inactive); in the test on SN12C, 4.97 µM (inactive). The GI50 with MDA-MB-435 was 3.33 µM (inactive); with T47D it was 4.98 µM (inactive); in the test on 786-0 it was 2.98 µM (inactive); in the test with RXF 393, 3.81 µM (inactive); in the test on Hs-578T, 4.06 µM (inactive); in the test on HL-60, 0.815 µM (active). Moreover, the GI50 in the test with A549 is 17 µM (inactive); in the test with NCI/ADR-RES it was 2.18 µM (inactive).
Consider `C/C=C(/C)C(=O)O[C@@H]1CCN2CC[C@H](COC(=O)/C(=C/C)CO)C12` (stereo not given in full), for which the GI50 in the test with OVCAR-5 is > 100 µM (inactive); with CAKI-1, > 100 µM (inactive); with UACC-257 it was > 53.8 µM (inactive); in the test with PC-3, > 100 µM (inactive); in the test with HCT-116, 48.8 µM (inactive); in the test on OVCAR-8 it was > 100 µM (inactive). For the same molecule, the GI50 in the test with HT-29 was 28.7 µM (inactive); in the test with MDA-MB-231, > 100 µM (inactive); in the test on TK-10 it was > 100 µM (inactive); in the test on RPMI-8226, 33.5 µM (inactive); with NCI-H460, 59.6 µM (inactive); in the test on SN12C it was > 100 µM (inactive). Also, the GI50 in the test with MDA-MB-435 was 63.1 µM (inactive); in the test on T47D it was > 100 µM (inactive); in the test with 786-0 it was > 95.3 µM (inactive); with RXF 393, > 44.9 µM (inactive); in the test with Hs-578T, 36.6 µM (inactive); in the test on HL-60 it was > 59.8 µM (inactive). In addition, the GI50 in the test with A549 and in the test with NCI/ADR-RES was > 100 µM (inactive) each time.
